Measured values reported in ChEMBL document CHEMBL1201862, “PubChem BioAssay data set” (2004).
Calls of active or inactive are those of the source.

Experiments:
[1] = biological target: T1, RNA-binding protein pos-1 (Caenorhabditis elegans, UniProt G5EF15); assay: inhibitors of POS-1/mex-3 RNA binding, dose response, biochemical, fluorescence polarization (AID 1964);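 further: purified POS-1 fused to maltose binding protein made in E. coli; potency of compounds blocking POS-1 binding to fluorescent RNA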
T1 sequence (G5EF15 whole entry): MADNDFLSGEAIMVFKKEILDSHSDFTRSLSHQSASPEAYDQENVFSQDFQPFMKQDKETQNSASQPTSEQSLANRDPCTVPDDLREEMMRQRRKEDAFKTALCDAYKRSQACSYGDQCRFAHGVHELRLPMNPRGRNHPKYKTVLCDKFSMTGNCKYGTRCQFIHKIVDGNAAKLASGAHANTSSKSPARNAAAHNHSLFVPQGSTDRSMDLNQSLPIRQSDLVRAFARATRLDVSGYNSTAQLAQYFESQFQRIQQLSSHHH

[2] = biological target: T2, Zinc finger protein mex-5 (Caenorhabditis elegans, UniProt Q9XUB2); assay: MEX-5/TCR-2 RNA interaction inhibitors, dose response, biochemical, C. elegans, fluorescence polarization (AID 1960)
T2 sequence (Q9XUB2 whole entry): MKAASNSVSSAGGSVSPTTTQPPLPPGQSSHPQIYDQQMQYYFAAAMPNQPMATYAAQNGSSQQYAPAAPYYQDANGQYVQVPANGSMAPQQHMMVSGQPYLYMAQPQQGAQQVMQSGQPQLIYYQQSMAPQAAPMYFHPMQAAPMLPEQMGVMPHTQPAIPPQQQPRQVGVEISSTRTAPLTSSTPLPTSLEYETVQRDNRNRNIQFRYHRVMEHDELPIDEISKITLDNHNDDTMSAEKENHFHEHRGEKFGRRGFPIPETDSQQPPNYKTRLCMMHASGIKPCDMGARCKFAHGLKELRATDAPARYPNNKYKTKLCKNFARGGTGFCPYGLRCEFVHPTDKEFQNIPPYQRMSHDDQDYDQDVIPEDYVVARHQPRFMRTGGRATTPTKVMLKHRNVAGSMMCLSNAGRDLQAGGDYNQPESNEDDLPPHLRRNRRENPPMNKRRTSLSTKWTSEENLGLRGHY

[3] = inhibitors of firefly luciferase expression or activity, dose response, H4 neuroglioma cells, luminescence (AID 1990); format: functional, cell-based
[4] = Luminescence Cell-Based Dose Response HTS to Identify Inhibitors of 5'UTR Stem-Loop Driven Prion Protein mRNA Translation in H4 Neuroglioblastoma Cells. [Related pubchem assays: 1827 (Project Summary), 1813 (Primary HTS)]; format: functional
[5] = inhibitors of SNCA 5'UTR-driven reporter translation, confirmation, H4 neuroglioma cells, luminescence (AID 1988); format: functional, cell-based
[6] = biological target: T3, Calpain-2 catalytic subunit (Sus scrofa, UniProt P43367); assay: pig calpain II inhibitor potency, dose response, biochemical, fluorogenic peptide substrate (AID 1420); format: functional
T3 sequence (P43367 whole entry): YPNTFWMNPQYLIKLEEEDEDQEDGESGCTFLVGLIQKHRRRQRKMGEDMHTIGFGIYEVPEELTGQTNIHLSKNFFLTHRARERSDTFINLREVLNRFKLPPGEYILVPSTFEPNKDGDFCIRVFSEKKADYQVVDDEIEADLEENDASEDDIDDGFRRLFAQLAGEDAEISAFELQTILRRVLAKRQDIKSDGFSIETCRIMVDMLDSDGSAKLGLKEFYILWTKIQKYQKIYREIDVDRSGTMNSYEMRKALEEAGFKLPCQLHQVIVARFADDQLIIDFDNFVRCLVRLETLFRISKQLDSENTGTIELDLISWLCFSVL

[7] = biological target: T4, Replicative DNA helicase DnaB (Mycobacterium tuberculosis, UniProt P9WMR3); assay: DnaB intein splicing inhibitors, dose response, biochemical, cell-free fluorescence (AID 449749); format: functional
T4 sequence (P9WMR3 whole entry): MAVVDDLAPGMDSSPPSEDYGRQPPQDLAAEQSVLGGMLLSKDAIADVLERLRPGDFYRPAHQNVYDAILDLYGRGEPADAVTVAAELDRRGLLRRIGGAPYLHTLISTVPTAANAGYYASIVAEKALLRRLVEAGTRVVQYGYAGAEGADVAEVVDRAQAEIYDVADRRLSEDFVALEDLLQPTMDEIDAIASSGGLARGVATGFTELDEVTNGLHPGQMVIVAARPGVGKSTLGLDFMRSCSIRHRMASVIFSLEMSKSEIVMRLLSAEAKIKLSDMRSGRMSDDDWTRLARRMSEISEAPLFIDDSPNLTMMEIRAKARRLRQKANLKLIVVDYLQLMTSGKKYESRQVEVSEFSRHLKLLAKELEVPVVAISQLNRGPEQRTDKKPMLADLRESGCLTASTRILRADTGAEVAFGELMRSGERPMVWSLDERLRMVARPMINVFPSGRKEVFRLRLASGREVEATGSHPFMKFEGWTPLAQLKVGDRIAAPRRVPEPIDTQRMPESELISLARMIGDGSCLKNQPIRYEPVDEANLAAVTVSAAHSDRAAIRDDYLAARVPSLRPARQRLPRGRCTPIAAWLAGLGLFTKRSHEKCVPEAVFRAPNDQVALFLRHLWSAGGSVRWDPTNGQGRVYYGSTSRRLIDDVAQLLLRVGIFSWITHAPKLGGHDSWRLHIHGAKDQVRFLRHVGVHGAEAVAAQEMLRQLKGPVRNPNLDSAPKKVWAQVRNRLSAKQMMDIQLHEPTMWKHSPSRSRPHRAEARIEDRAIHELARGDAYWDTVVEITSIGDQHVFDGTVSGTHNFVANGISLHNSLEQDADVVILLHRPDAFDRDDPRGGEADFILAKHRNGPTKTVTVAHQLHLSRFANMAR

Protein RecA = biological target: T5, Protein RecA (Mycobacterium tuberculosis, UniProt P9WHJ3); assay: Fluorescence Cell-Free Homogeneous Dose Retest to Identify Inhibitors of RecA-Intein Splicing Activity. [Related pubchem assays (depositor defined):AID2097, AID2223, AID489010, AID492950]; format: functional
T5 sequence (P9WHJ3 whole entry): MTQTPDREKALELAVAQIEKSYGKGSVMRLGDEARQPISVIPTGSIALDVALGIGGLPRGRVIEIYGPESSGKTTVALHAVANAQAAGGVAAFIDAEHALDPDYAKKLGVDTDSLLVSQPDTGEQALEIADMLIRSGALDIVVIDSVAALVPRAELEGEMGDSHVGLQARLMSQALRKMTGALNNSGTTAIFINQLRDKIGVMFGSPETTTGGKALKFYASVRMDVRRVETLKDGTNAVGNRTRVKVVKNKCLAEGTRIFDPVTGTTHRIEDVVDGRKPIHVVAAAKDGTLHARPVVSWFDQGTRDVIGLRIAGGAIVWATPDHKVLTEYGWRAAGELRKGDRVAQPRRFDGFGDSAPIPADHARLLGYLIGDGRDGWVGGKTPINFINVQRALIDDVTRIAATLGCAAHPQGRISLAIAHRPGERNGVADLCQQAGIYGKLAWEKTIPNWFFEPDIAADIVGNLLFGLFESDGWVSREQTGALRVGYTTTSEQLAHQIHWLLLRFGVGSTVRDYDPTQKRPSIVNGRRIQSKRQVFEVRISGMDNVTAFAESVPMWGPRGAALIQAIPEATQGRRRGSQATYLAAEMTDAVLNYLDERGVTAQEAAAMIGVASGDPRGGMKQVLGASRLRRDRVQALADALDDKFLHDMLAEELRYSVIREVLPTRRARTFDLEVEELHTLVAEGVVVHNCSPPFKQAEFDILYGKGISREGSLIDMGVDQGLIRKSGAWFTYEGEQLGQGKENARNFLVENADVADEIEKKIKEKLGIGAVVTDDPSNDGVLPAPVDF

[8] = biological target: T6, Rac GTPase-activating protein 1 (Homo sapiens, UniProt Q9H0H5); assay: MgcRacGAP GTPase-activating activity inhibitors, confirmation, biochemical, ADP Hunter fluorescence, primary and confirmatory (AID 624330); format: functional
T6 sequence (Q9H0H5 whole entry): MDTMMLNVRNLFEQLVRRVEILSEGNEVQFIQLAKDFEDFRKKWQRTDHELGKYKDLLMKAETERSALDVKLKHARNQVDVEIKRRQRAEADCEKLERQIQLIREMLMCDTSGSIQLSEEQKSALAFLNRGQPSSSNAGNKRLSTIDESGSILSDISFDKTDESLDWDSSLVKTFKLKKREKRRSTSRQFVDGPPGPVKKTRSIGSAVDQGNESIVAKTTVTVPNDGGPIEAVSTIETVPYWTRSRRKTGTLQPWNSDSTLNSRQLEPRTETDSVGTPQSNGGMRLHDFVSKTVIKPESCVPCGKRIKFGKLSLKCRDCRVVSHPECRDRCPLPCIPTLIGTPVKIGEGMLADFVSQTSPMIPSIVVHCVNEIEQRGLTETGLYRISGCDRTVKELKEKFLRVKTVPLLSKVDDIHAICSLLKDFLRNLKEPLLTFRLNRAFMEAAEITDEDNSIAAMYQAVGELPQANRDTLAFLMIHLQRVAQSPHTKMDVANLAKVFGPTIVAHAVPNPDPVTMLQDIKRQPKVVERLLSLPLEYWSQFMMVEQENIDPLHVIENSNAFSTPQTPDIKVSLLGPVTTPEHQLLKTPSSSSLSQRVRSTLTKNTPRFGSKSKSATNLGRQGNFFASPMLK

[9] = biological target: T7, Ubiquitin-conjugating enzyme E2 N (Homo sapiens, UniProt P61088); format: functional;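 further: Dose-response confirmation in a TR-FRET assay detecting UBC13-driven polyubiquitin chain formation, inhibition measured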
T7 sequence (P61088 whole entry): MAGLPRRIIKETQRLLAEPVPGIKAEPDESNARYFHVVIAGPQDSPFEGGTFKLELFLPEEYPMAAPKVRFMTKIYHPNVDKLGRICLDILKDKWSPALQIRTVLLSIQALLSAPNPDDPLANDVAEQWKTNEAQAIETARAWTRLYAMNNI

[10] = test system: Streptococcus sp. 'group A'; assay: growth inhibition of control SK(-) GAS strain, dose response, counter-screen for streptokinase expression inhibitor project, luminescence, kanamycin, BacTiterGlo, confirmation (AID 1900); format: functional, organism-based
Streptokinase A = biological target: T8, Streptokinase A (Streptococcus pyogenes serotype M1, UniProt P10520); assay: S. pyogenes streptokinase expression inhibitors, potency, dose response, plasminogen activation absorbance, OD405 (AID 1914); format: functional, Streptococcus pyogenes M1 GAS;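 further: secreted streptokinase activity via plasminogen activation per viability signal from cell pellet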
T8 sequence (P10520 whole entry): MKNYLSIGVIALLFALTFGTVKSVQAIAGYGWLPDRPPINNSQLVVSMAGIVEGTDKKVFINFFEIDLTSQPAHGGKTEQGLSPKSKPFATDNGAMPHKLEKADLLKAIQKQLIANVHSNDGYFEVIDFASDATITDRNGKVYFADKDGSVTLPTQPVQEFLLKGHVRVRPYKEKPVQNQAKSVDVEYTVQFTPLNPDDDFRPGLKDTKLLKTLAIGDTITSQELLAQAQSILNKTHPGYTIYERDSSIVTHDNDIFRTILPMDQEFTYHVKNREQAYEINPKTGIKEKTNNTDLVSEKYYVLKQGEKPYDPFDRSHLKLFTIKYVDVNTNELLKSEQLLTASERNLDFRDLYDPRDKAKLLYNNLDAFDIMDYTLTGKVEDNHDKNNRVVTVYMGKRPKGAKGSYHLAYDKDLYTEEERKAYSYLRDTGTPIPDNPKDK

Streptococcus = assay: Group A Streptococcus viability loss, dose response, counter-screen for streptokinase expression inhibitor project, luminescence, BacTiterGlo (AID 1915); format: functional, organism-based;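 further: potency for reduction of bacterial viability or growth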

## CC1CC=C2C(C#N)=C(N)C(C#N)(C#N)C(c3cccs3)C2C1 (stereo not drawn)
[1]
  EC50: 21.7 µM (active)
[2]
  EC50: 14.9 µM (active)

## N=c1c(S(=O)(=O)c2ccc(Cl)cc2)cc2c(=O)n3ccccc3nc2n1C1CCCCC1
[3]
  EC50: 83.2 µM (active)
[1]
  EC50: 82.7 µM (inconclusive)
[4]
  EC50: 14.1 µM (active)
[2]
  EC50: 125 µM (active)
[5]
  EC50: > 120 µM (not active)

## CCN(CC)C(=O)Cn1cc(/C=C2\C(=O)NC(=O)N(c3ccccc3F)C2=O)c2ccccc21
[1]
  EC50: > 300 µM (not active)
[2]
  EC50: > 300 µM (not active)

## CCOC(=O)C1CCN(c2c([N+](=O)[O-])c(C(Cl)Cl)nn2-c2ccccc2)CC1
[6]
  IC50: 8.97 µM (not active)

## CCOc1cc(C(c2c(C)[nH][nH]c2=O)c2c(C)[nH][nH]c2=O)cc([N+](=O)[O-])c1O
[1]
  EC50: 16.3 µM (active)
[2]
  EC50: 2.07 µM (active)
[7]
  AC50: 0.299 µM (active)
Protein RecA
  EC50: 0.219 µM (active)

## Cc1ccc(-c2nn(-c3ccccc3)cc2CNCc2ccccc2)cc1
[6]
  IC50: > 50 µM (not active)

## Cc1ccc(Cl)cc1N(Cc1ccc(C(=O)NCc2cccnc2)cc1)S(=O)(=O)c1ccccc1
[6]
  IC50: 7.55 µM (not active)

## Cc1cc(O)ccc1NC(=O)c1ccccc1
[8]
  IC50: 69.1 µM (active)

## CCC(=O)Nc1ccc(Cl)c(NC(=S)NC(=O)c2cc3ccccc3o2)c1
[6]
  IC50: 25.7 µM (not active)

## COc1ccccc1NC(=O)COC(=O)c1cc(C)nc2ccccc12
[9]
  IC50: > 20 µM (inactive)

## Cc1ccc2cc(C#N)c(SCC(=O)NNC(=O)Cc3ccccc3)nc2c1
[6]
  IC50: 23.7 µM (not active)

## COc1cccc(/C=C(/C(=O)OCC(=O)NC2CCCC(C)C2C)c2ccccc2)c1 (stereo not drawn)
[10]
  EC50: 6.28 µM (active)
Streptokinase A
  EC50: 6.84 µM (active)
[6]
  IC50: 11.6 µM (not active)
Streptococcus
  EC50: 17.3 µM (active)

## O=C(CSc1nc2ccccc2c(=O)n1-c1ccccc1)N1CCc2ccccc21
[6]
  IC50: 16.7 µM (not active)

## C[C@@H](CN1C2=NC[C@H](Cc3ccccc3)N2C[C@H]1Cc1ccc(O)cc1)NC(=O)CCC1CCCCC1
[9]
  IC50: > 20 µM (inactive)

## Cc1nn2c(nc(N3CCOCC3)c3ccccc32)c1C=C(C#N)C#N
[9]
  IC50: > 20 µM (inactive)

## COc1cccc(CNC(=O)CN=C(S)N(Cc2ccccc2)Cc2ccccc2F)c1
[6]
  IC50: 6.84 µM (not active)

## CC(=O)N1CCN(c2ccc(NCc3cccs3)cc2)CC1
[8]
  IC50: 14.1 µM (active)

## O=C(Nc1ccc2c(c1)OCO2)c1c(F)c(F)c(F)c(F)c1F
[6]
  IC50: > 50 µM (not active)

## CCCCOc1ccc(C(=O)NNC(=O)c2cnccn2)cc1OC
[9]
  IC50: > 20 µM (inactive)

## Nc1ccc2nc(S)sc2c1
[8]
  IC50: 30.4 µM (active)

## Cc1cc(C)n(CCC(=O)N/N=C/c2ccc(O)cc2)n1
[8]
  IC50: 77.2 µM (active)
